pIC50: −log10 of the molar value.
Biological target: EBI2 (Homo sapiens, UniProt P32249)
Test: Cell-based luminescent assay (EBI2 modulation)
Settings: not given
Procedure, shortened: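 Cells plated overnight at 37° C, then exposed to compound at 4-5 uM final with 80 nM 7a,25-OHC agonist for 60 min at 37° C. Luminescence read after 60 min detection at 25° C in the dark; values normalized to neutral and stimulator controls and plate-pattern corrected.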

Sequence of EBI2 (P32249 whole entry): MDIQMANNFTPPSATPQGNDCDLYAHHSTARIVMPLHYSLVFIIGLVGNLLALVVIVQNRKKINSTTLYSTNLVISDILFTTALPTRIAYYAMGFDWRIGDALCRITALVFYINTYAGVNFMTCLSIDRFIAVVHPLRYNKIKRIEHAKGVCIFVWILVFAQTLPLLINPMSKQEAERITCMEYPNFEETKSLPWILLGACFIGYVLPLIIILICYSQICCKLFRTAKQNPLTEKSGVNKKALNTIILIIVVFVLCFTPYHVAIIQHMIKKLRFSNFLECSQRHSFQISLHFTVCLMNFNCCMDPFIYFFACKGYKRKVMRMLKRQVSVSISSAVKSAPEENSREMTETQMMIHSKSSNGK

Row | Structure (SMILES) | pIC50
1 | O=C(/C=C/c1ccccc1)N1CCN(Cc2cccc(F)c2)CC1 [Compound C240, (2E)-1-{4-[(3-fluorophenyl)methyl]piperazinyl}-3-phenylprop-2-en-1-one] | > 7.00
2 | O=C(c1cc2cc(Cl)ccc2[nH]1)N1CCC(Nc2cccc(F)c2)CC1 [Compound C252, 5-chloroindol-2-yl 4-[(3-fluorophenyl)amino]piperidyl ketone] | > 7.00
3 | O=C(c1cc2cc(Cl)ccc2[nH]1)N1CCC(Nc2ccc(F)cc2F)CC1 [Compound C258, 4-[(2,4-difluorophenyl)amino]piperidyl 5-chloroindol-2-yl ketone] | > 7.00
4 | Cc1ccc(CN2CCN(C(=O)/C=C/c3ccccc3)CC2)cc1 [Compound C260] | > 7.00

Same assay, conditions: cell-based luminescence; 7a,25-OHC final assay concentration 80 nM; 60 minutes incubation; read-out: IC50

Row | Structure (SMILES) | pIC50
5 | Cc1cc2[nH]c(C(=O)N3CCN(C(c4ccccc4)c4ccccc4)CC3)cc2s1 [Compound C228, 4-(diphenylmethyl)piperazinyl 2-methylthiopheno[2,3-d]pyrrol-5-yl ketone] | > 7.00
6 | O=C(c1ccccc1)C1CCN(C(=O)c2cc3cc(Cl)ccc3[nH]2)CC1 [Compound C229, 5-chloroindol-2-yl 4-(phenylcarbonyl)piperidyl ketone] | > 7.00
7 | O=C(/C=C/c1ccc(Cl)c(Cl)c1)N1CCN(S(=O)(=O)c2ccccc2)CC1 [Compound C230, (2E)-3-(3,4-dichlorophenyl)-1-[4-(phenylsulfonyl)piperazinyl]prop-2-en-1-one] | > 7.00
8 | O=C(C#Cc1ccc(C(F)(F)F)cc1)N1CCN(Cc2ccc(F)cc2)CC1 [Compound C231, 1-{4-[(4-fluorophenyl)methyl]piperazinyl}-3-[4-(trifluoromethyl)phenyl]prop-2-yn-1-one] | > 7.00
9 | CCN(CC)c1ccc(C(=O)N2CCN(C(=O)c3cc4cc(Cl)ccc4[nH]3)CC2)cc1 [Compound C232, 4-{[4-(diethylamino)phenyl]carbonyl}piperazinyl 5-chloroindol-2-yl ketone] | > 7.00
10 | CN(C)c1ccc(/C=C/C(=O)N2CCN(C(c3ccccc3)c3ccccc3)CC2)cc1 [Compound C233, (2E)-3-[4-(dimethylamino)phenyl]-1-[4-(diphenylmethyl)piperazinyl]prop-2-en-1-one] | > 7.00
11 | O=C(C=Cc1ccc2c(c1)OCO2)N1CCN(C(=O)c2ccc(Br)cc2)CC1 [Compound C234, 3-(2H-benzo[3,4-d]1,3-dioxolan-5-yl)-1-{4-[(4-bromophenyl)carbonyl]piperazinyl}prop-2-en-1-one] | > 7.00
12 | O=C(/C=C/c1ccc(F)cc1)N1CCN(S(=O)(=O)c2ccc(F)cc2)CC1 [Compound C235, (2E)-3-(4-fluorophenyl)-1-{4-[(4-fluorophenyl)sulfonyl]piperazinyl}prop-2-en-1-one] | > 7.00
13 | COc1ccc(CN2CCN(C(=O)C#Cc3ccc(C)cc3)CC2)cc1 [Compound C236, 1-{4-[(4-methoxyphenyl)methyl]piperazinyl}-3-(4-methylphenyl)prop-2-yn-1-one] | > 7.00
14 | O=C(/C=C/c1ccc(F)cc1)N1CCN(S(=O)(=O)c2ccccc2F)CC1 [Compound C237, (2E)-3-(4-fluorophenyl)-1-{4-[(2-fluorophenyl)sulfonyl]piperazinyl}prop-2-en-1-one] | > 7.00
15 | O=C(C=Cc1ccc2c(c1)OCO2)N1CCN(C(=O)c2ccc(Cl)cc2)CC1 [Compound C238, 3-(2H-benzo[3,4-d]1,3-dioxolen-5-yl)-1-{4-[(4-chlorophenyl)carbonyl]piperazinyl}prop-2-en-1-one] | > 7.00
16 | Cc1ccccc1/C=C/C(=O)N1CCN(C(c2ccccc2)c2ccccc2)CC1 [Compound C241, (2E)-1-[4-(diphenylmethyl)piperazinyl]-3-(2-methylphenyl)prop-2-en-1-one] | > 7.00
17 | Cn1c(C(=O)N2CCN(C(c3ccccc3)c3ccccc3)CC2)cc2ccccc21 [Compound C242, 4-(diphenylmethyl)piperazinyl 1-methylindol-2-yl ketone] | > 7.00
18 | O=C(c1ccccc1)N1CCN(C(=O)c2cc3cc(Cl)ccc3[nH]2)CC1 [Compound C243, 5-chloroindol-2-yl 4-(phenylcarbonyl)piperazinyl ketone] | > 7.00
19 | Cc1ccc2[nH]c(C(=O)N3CCN(Cc4ccc(C(C)(C)C)cc4)CC3)cc2c1 [Compound C244, 4-{[4-(tert-butyl)phenyl]methyl}piperazinyl 5-methylindol-2-yl ketone] | > 7.00
20 | Cc1ccc(C#CC(=O)N2CCN(Cc3ccc(Cl)cc3)CC2)cc1 [Compound C245, 1-{4-[(4-chlorophenyl)methyl]piperazinyl}-3-(4-methylphenyl)prop-2-yn-1-one] | > 7.00
21 | O=C(c1cc2cc(C(F)(F)F)ccc2[nH]1)N1CCN(C(=O)c2ccc(Cl)cc2Cl)CC1 [Compound C246, 4-[(2,4-dichlorophenyl)carbonyl]piperazinyl 5-(trifluoromethyl)indol-2-yl ketone] | > 7.00
22 | O=C(c1ccc2sccc2c1)N1CCN(C(c2ccccc2)c2ccccc2)CC1 [Compound C247, benzo[b]thiophen-5-yl 4-(diphenylmethyl)piperazinyl ketone] | > 7.00
23 | O=C(/C=C/c1ccccc1)N1CCN(Cc2ccc(F)cc2)CC1 [Compound C248, (2E)-1-{4-[(4-fluorophenyl)methyl]piperazinyl}-3-phenylprop-2-en-1-one] | > 7.00

Row | Structure (SMILES) | pIC50
24 | O=C(C#Cc1ccc(Cl)c(Cl)c1)N1CCN(C(=O)c2ccc(C(F)(F)F)cc2)CC1 [Compound C249, 3-(3,4-dichlorophenyl)-1-(4-{[4-(trifluoromethyl)phenyl]carbonyl}piperazinyl)prop-2-yn-1-one] | > 7.00
25 | O=C(c1cc2cc(C(F)(F)F)ccc2[nH]1)N1CCN(Cc2cc(F)cc(F)c2)CC1 [Compound C251, 4-[(3,5-difluorophenyl)methyl]piperazinyl 5-(trifluoromethyl)indol-2-yl ketone] | > 7.00
26 | O=C(C#Cc1ccc(F)cc1)N1CCN(C(=O)c2ccc(C(F)(F)F)cc2)CC1 [Compound C253, 3-(4-fluorophenyl)-1-(4-{[4-(trifluoromethyl)phenyl]carbonyl}piperazinyl)prop-2-yn-1-one] | > 7.00
27 | O=C(c1ccc(Cl)cc1)N1CCN(C(=O)c2cc3ccc(Cl)cc3[nH]2)CC1 [Compound C255, 6-chloroindol-2-yl 4-[(4-chlorophenyl)carbonyl]piperazinyl ketone] | > 7.00
28 | COc1ccc(C(=O)N2CCN(C(=O)C=Cc3ccc4c(c3)OCO4)CC2)cc1 [Compound C256, 3-(2H-benzo[3,4-d]1,3-dioxolen-5-yl)-1-{4-[(4-methoxyphenyl)carbonyl]piperazinyl}prop-2-en-1-one] | > 7.00
29 | O=C(c1cnc2ccc(Cl)cc2c1)N1CCN(C(c2ccccc2)c2ccccc2)CC1 [Compound C257, 4-(diphenylmethyl)piperazinyl 6-chloro(3-quinolyl) ketone] | > 7.00
30 | CCCc1ccc(S(=O)(=O)N2CCN(C(=O)/C=C/c3ccc(F)cc3)CC2)cc1 [Compound C259, (2E)-3-(4-fluorophenyl)-1-{4-[(4-propylphenyl)sulfonyl]piperazinyl}prop-2-en-1-one] | > 7.00
31 | CC(C)c1ccc(S(=O)(=O)N2CCN(C(=O)/C=C/c3ccc(F)cc3)CC2)cc1 [Compound C261, (2E)-3-(4-fluorophenyl)-1-(4-{[4-(methylethyl)phenyl]sulfonyl}piperazinyl)prop-2-en-1-one] | > 7.00
32 | O=C(C#Cc1cccc(Cl)c1Cl)N1CCN(Cc2ccc(F)cc2)CC1 [Compound C262, 3-(2,3-dichlorophenyl)-1-{4-[(4-fluorophenyl)methyl]piperazinyl}prop-2-yn-1-one] | > 7.00
33 | O=C(c1cc2c(F)cc(F)cc2[nH]1)N1CCN(C(c2ccccc2)c2ccccc2)CC1 [Compound C263, 4,6-difluoroindol-2-yl 4-(diphenylmethyl)piperazinyl ketone] | > 7.00
34 | O=C(c1ccc(Br)cc1)N1CCN(C(=O)c2cc3ccc(Br)cc3[nH]2)CC1 [Compound C264, 6-bromoindol-2-yl 4-[(4-bromophenyl)carbonyl]piperazinyl ketone] | > 7.00
35 | O=C(/C=C/c1cccc(C(F)(F)F)c1)N1CCN(C(c2ccccc2)c2ccccc2)CC1 [Compound C265, (2E)-1-[4-(diphenylmethyl)piperazinyl]-3-[3-(trifluoromethyl)phenyl]prop-2-en-1-one] | > 7.00
36 | O=C(C#Cc1ccc2c(c1)OCO2)N1CCN(C(=O)c2ccc(C(F)(F)F)cc2)CC1 [Compound C266, 3-(2H-benzo[3,4-d]1,3-dioxolen-5-yl)-1-(4-{[4-(trifluoromethyl)phenyl]carbonyl}piperazinyl)prop-2-yn-1-one] | > 7.00
37 | O=C(/C=C/c1ccc(Br)cc1)N1CCN(C(=O)c2cccc(B(O)O)c2)CC1 [Compound C267, (E)-(3-(4-(3-(4-bromophenyl)acryloyl)piperazine-1-carbonyl)phenyl)boronic acid] | > 7.00
38 | O=C(c1ccc(F)cc1)N1CCN(C(=O)c2cc3ccc(Cl)cc3[nH]2)CC1 [Compound C268, 6-chloroindol-2-yl 4-[(4-fluorophenyl)carbonyl]piperazinyl ketone] | > 7.00
39 | O=C(/C=C/c1ccc(Br)cc1)N1CCN(Cc2ccccc2F)CC1 [Compound C269, (2E)-3-(4-bromophenyl)-1-{4-[(2-fluorophenyl)methyl]piperazinyl}prop-2-en-1-one] | > 7.00
40 | O=C(/C=C/c1ccccc1)N1CCN(CCc2ccc(Cl)cc2)CC1 [Compound C270, (2E)-1-{4-[2-(4-chlorophenyl)ethyl]piperazinyl}-3-phenylprop-2-en-1-one] | > 7.00
41 | O=C(c1cccc(C(F)(F)F)c1)N1CCN(C(=O)c2cc3cc(C(F)(F)F)ccc3[nH]2)CC1 [Compound C271, 5-(trifluoromethyl)indol-2-yl 4-{[3-(trifluoromethyl)phenyl]carbonyl}piperazinyl ketone] | > 7.00
42 | O=C(c1cc2cc(Cl)ccc2[nH]1)N1CCC(Oc2cccc(Cl)c2)CC1 [Compound C272, 5-chloroindol-2-yl 4-(3-chlorophenoxy)piperidyl ketone] | > 7.00
